A short description of series [1]: Bi-directional Caco-2 permeability. The class given is in vitro ADME. As to conditions: human; for Papp A→B at 90 min / Papp B→A at 90 min: Caco-2, 37° C., up to 90 minutes; for Papp A→B at 90 min: apical to basolateral, read-out: AB Papp (cm/sec × 10^6); for Papp B→A at 90 min: basolateral to apical, read-out: BA Papp (cm/sec × 10^6); for efflux ratio at 90 min: Caco-2 efflux ratio, read-out: BA/AB Ratio. As to the method: Bi-directional Caco-2 permeability was assayed. Caco-2 cells were seeded onto permeable polycarbonate supports and allowed to differentiate for about 3 weeks prior to being used in the assays. The cells were then exposed to the compounds from either the apical or basolateral sides and incubated at 37° C. for up to 90 minutes under light agitation. Compound transport was then measured using LC/MS/MS analysis at 30, 60, and 90 minutes.

Series [2] has as its system Daudi cell line (AID positive). The experiment in a line: Cell killing assay in the Daudi cell line (AID positive), Cell-Titer Glo. The class given is cell-based. The conditions noted are these: Homo sapiens, 168 h; Daudi cells (AID positive), cell death on Day 7. The procedure: Primary screening was a phenotypic screen that utilized the synthetic lethal interaction between AID and RAD51 to identify compounds that were both potent and on target. AID expressing cells are dependent upon RAD51 for survival; inhibiting RAD51 in AID positive cells results in a cytotoxic effect.
The first step was to set up a cell killing assay in the Daudi cell line (AID positive). A 96 well u-bottom plate was prepared by writing the experiment number, plate number, date and initials in the top right corner of the plate lid. With a sterile 300 ml reservoir, and 25 ml serological pipette, evaporation buffer media was pipetted into reservoir in 25 ml increments. Using the liquid handler, 150 ul of evaporation buffer media was pipetted from reservoir into rows A and H, and Columns 1 and 12 of the 96 well u-bottom plate. Cell cultures were counted to obtain the density of cells per ml, and the culture viability. The cell density information was used to obtain 1,000,000 cells from culture using a 5 mL serological pipette into an epi tube. The cell density information from the culture was used to calculate the number of cells and volume of media needed for the assay to seed 1250 cells in 130 ul of media per available culture well in the 96 well u-bottom plate. Rows B through F were used for cells (50 wells in total), with row G left for an empty media control. The calculation was overestimated by 10 mL to account for the dead volume in the 300 ml reservoir. Once the media volume was calculated, the appropriate volume of media was pipetted in 25 mL increments into the 250 mL bottle using a 25 mL serological pipette. The 250 ml bottle was capped tightly, and placed into a 37° C. water bath for 2 minutes. While the culture media was warming, 10 mL of fresh media was pipetted from the 500 mL culture media bottle into a sterile 25 mL reservoir. Using the Eppendorf multichannel pipette, 130 ul of media was pipetted from the 25 mL reservoir into row G of the 96 well u-bottom plate. […]

The nature of series [3]: Pharmacokinetic (PK) study, plasma by LC-MS. The conditions noted are these: po @ 80 mg/kg. It counts as in vivo, rat. As to the method:
PK studies in mice were used to determine the fate of the compounds in a whole organism. Rats were treated with the compounds either orally of via IV at the indicated doses and followed for up to 24 hours. Plasma samples were taken at different time points and analyzed by LC-MS.

Series [4] in a line: Human liver microsome stability. The class given is in vitro ADME. The conditions noted are these: human liver microsomes. As to the method:
The stability of the claimed compounds was determined in the presences of human liver microsomes. The compounds were incubated with the microsomes at 37° C. for 45 minutes. Samples were analyzed using LC-MS/MS. Data analysis included half-life, clearance rate, and the percentage of hepatic blood flow […] for each of the compounds in the different species.

[5] abbreviates: Caco-2, apical to basolateral, read-out: AB Recovery %.
Setting [6] is: Caco-2, basolateral to apical, read-out: BA Recovery %.

Consider 14 molecules from patent US20250082614A1, “METHODS OF USING RAD51 INHIBITORS FOR TREATMENT OF PANCREATIC CANCER” (Cyteir Therapeutics, Inc., priority 2019, published 2025).

SMILES strings stand for the structures. Read-outs that look alike come from different tables or passages of the source.

For the molecule `CC(C)OC(=O)N[C@@H]1CCC(c2ncc(-c3ccc(NC(=O)NCc4ccccc4)cc3S(=O)(=O)NC(C)(C)C)s2)OC1` (mixture of isomers) [Ex. 59, trans-isopropyl N-[6-[5-[4-(benzylcarbamoylamino)-2-(tert-butylsulfamoyl)phenyl]thiazol-2-yl]tetrahydropyran-3-yl]carbamate], the recovery at 90 min in series [1] (setting [5]) amounted to 61.5%. For the same molecule, the recovery at 90 min in series [1] (setting [6]) worked out at 91.5%. Further, in series [1], the Papp A→B at 90 min is 3.1 ×10⁻⁶ cm/s, the Papp B→A at 90 min was 15 ×10⁻⁶ cm/s and the efflux ratio at 90 min is 4.8.

With `CC(C)OC(=O)Nc1ccc(-c2cnc(C3CC[C@@H](NC(=O)OC(C)C)CO3)s2)c(S(=O)(=O)NC(C)(C)C)c1` (mixture of isomers) [Ex. 60, trans-isopropyl N-[6-[5-[2-(tert-butylsulfamoyl)-4-(isopropoxycarbonylamino)phenyl]thiazol-2-yl]tetrahydropyran-3-yl]carbamate], the recovery at 90 min in series [1] (setting [5]) was 59.8%. For the same molecule, the recovery at 90 min in series [1] (setting [6]) stood at 90.8%. In addition, in series [1], the Papp A→B at 90 min is 15.6 ×10⁻⁶ cm/s, the Papp B→A at 90 min is 13.3 ×10⁻⁶ cm/s and the efflux ratio at 90 min was found to be 0.9.

On to `CC(C)OC(=O)Nc1ccc(-c2cnc(C3CCC(NC(=O)OC[C@@H]4CCCN4C)CC3)s2)c(S(=O)(=O)NC(C)(C)C)c1` (stereo partly drawn) [Ex. 9, isopropyl (3-(N-(tert-butyl)sulfamoyl)-4-(2-((1S,4r)-4-(((((S)-1-methylpyrrolidin-2-yl)methoxy)carbonyl)amino)cyclohexyl)thiazol-5-yl)phenyl)carbamate], for which the concentration for a half-maximal effect (EC50) in series [2] was in the range of 100 to 1000 nM.

Take `CC(C)NC(=O)OC1CCC(c2ncc(-c3ccc(NC(=O)NCc4ccccc4)cc3S(=O)(=O)NC(C)(C)C)s2)CC1` (stereo not drawn) [Ex. 21]: in series [1], the Papp A→B at 90 min is 3.6 ×10⁻⁶ cm/s, the Papp B→A at 90 min worked out at 10.7 ×10⁻⁶ cm/s and the efflux ratio at 90 min is 3.

Take `CC(C)OC(=O)N[C@H]1CC[C@H](c2ncc(-c3ccc(NC(=O)NCc4ccncc4)cc3S(=O)(=O)NC(C)(C)C)s2)CC1` [Ex. 22, trans-isopropyl N-[4-[5-[2-(tert-butylsulfamoyl)-4-(4-pyridylmethylcarbamoylamino)phenyl]thiazol-2-yl]cyclohexyl]carbamate]: the recovery at 90 min in series [1] (setting [5]) was determined as 83.1%. The recovery at 90 min in series [1] (setting [6]) stood at 89%. Further, in series [1], the Papp A→B at 90 min worked out at 1.1 ×10⁻⁶ cm/s, the Papp B→A at 90 min is 21 ×10⁻⁶ cm/s and the efflux ratio at 90 min is 18.7.

Regarding `CC(C)OC(=O)NC1CCC(c2ncc(-c3ccc(NC(=O)NCc4cccc(F)c4)cc3S(=O)(=O)NC(C)(C)C)s2)CC1` (stereo not drawn) [Ex. 27, isopropyl ((1r,4r)-4-(5-(2-(N-(tert-butyl)sulfamoyl)-4-(3-(3-fluorobenzyl)ureido)phenyl)thiazol-2-yl)cyclohexyl)carbamate], in series [1], the Papp A→B at 90 min was found to be 0.7 ×10⁻⁶ cm/s, the Papp B→A at 90 min turned out to be 0.5 ×10⁻⁶ cm/s and the efflux ratio at 90 min was found to be 0.7.

As for `CC(C)OC(=O)NC1CCC(c2ncc(-c3ccc(NC(=O)NCc4ccccc4F)cc3S(=O)(=O)NC(C)(C)C)s2)CC1` (stereo not drawn) [Ex. 28, isopropyl ((1r,4r)-4-(5-(2-(N-(tert-butyl)sulfamoyl)-4-(3-(2-fluorobenzyl)ureido)phenyl)thiazol-2-yl)cyclohexyl)carbamate], in series [1], the Papp A→B at 90 min amounted to 1.9 ×10⁻⁶ cm/s, the Papp B→A at 90 min stood at 3.3 ×10⁻⁶ cm/s and the efflux ratio at 90 min was 1.7.

On to `CC(C)OC(=O)NC1CCC(c2ncc(-c3ccc(NC(=O)NCc4ccccn4)cc3S(=O)(=O)NC(C)(C)C)s2)CC1` (stereo not drawn) [Ex. 29, isopropyl ((1r,4r)-4-(5-(2-(N-(tert-butyl)sulfamoyl)-4-(3-(pyridin-2-ylmethyl)ureido)phenyl)thiazol-2-yl)cyclohexyl)carbamate], for which the “F (%) @ 5 mg/kg” value in series [3] (Rat Female) amounted to 8.39%. The “F (%) @ 5 mg/kg” value in series [3] (Rat Male) amounted to 3.69%. Also, the “% QH (percentage of hepatic blood flow)” value in series [4] stood at 78.8%. Moreover, in series [1], the Papp A→B at 90 min is 10.9 ×10⁻⁶ cm/s, the Papp B→A at 90 min stood at 24.1 ×10⁻⁶ cm/s and the efflux ratio at 90 min amounted to 2.2.

With `CC(C)OC(=O)NC1CCC(c2ncc(-c3ccc(NC(=O)N[C@H](C)c4ccccn4)cc3S(=O)(=O)NC(C)(C)C)s2)CC1` (stereo partly drawn) [Ex. 30, isopropyl ((1R,4r)-4-(5-(2-(N-(tert-butyl)sulfamoyl)-4-(3-((R)-1-(pyridin-2-yl)ethyl)ureido)phenyl)thiazol-2-yl)cyclohexyl)carbamate], in series [1], the Papp A→B at 90 min was 11.5 ×10⁻⁶ cm/s, the Papp B→A at 90 min was determined as 15.7 ×10⁻⁶ cm/s and the efflux ratio at 90 min worked out at 1.4.

On to `CC(C)OC(=O)NC1CCC(c2ncc(-c3ccc(NC(=O)NCc4ncccc4F)cc3S(=O)(=O)NC(C)(C)C)s2)CC1` (stereo not drawn) [Ex. 31, isopropyl ((1r,4r)-4-(5-(2-(N-(tert-butyl)sulfamoyl)-4-(3-((3-fluoropyridin-2-yl)methyl)ureido)phenyl)thiazol-2-yl)cyclohexyl)carbamate], for which the “F (%) @ 5 mg/kg” value in series [3] (Rat Female) is 2.77%. Moreover, in series [3] (Rat Male), the “F (%) @ 5 mg/kg” value is given as 1.49%. The “% QH (percentage of hepatic blood flow)” value in series [4] is given as 77.3%. Besides, in series [1], the Papp A→B at 90 min was found to be 12.8 ×10⁻⁶ cm/s, the Papp B→A at 90 min was found to be 13.6 ×10⁻⁶ cm/s and the efflux ratio at 90 min is 1.1.

Take `CC(C)OC(=O)NC1CCC(c2ncc(-c3ccc(NC(=O)OC[C@H]4CCCN4C)cc3S(=O)(=O)NC(C)(C)C)s2)CC1` (stereo partly drawn) [Ex. 34, isopropyl ((1R,4r)-4-(5-(2-(N-(tert-butyl)sulfamoyl)-4-(((((R)-1-methylpyrrolidin-2-yl)methoxy)carbonyl)amino)phenyl)thiazol-2-yl)cyclohexyl)carbamate]: the EC50 in series [2] was in the range of 100 to 1000 nM. In series [1], the Papp A→B at 90 min is 0.4 ×10⁻⁶ cm/s, the Papp B→A at 90 min is 45.2 ×10⁻⁶ cm/s and the efflux ratio at 90 min stood at 104.

Consider `CC(C)OC(=O)NC1CCC(c2ncc(-c3ccc(NC(=O)OC[C@@H]4CCCN4C)cc3S(=O)(=O)NC(C)(C)C)s2)CC1` (stereo partly drawn) [Ex. 35, isopropyl ((1S,4r)-4-(5-(2-(N-(tert-butyl)sulfamoyl)-4-(((((S)-1-methylpyrrolidin-2-yl)methoxy)carbonyl)amino)phenyl)thiazol-2-yl)cyclohexyl)carbamate], for which the EC50 in series [2] was in the range of 100 to 1000 nM. Besides, in series [1], the Papp A→B at 90 min is 0.4 ×10⁻⁶ cm/s, the Papp B→A at 90 min stood at 41 ×10⁻⁶ cm/s and the efflux ratio at 90 min worked out at 99.1.

For `CC(C)OC(=O)N[C@@H]1CCC(c2ncc(-c3ccc(NC(=O)NCc4ccccc4)cc3S(=O)(=O)NC(C)(C)C)s2)NC1` (stereo partly drawn) [Ex. 64], in series [1], the Papp A→B at 90 min was determined as 2.2 ×10⁻⁶ cm/s, the Papp B→A at 90 min turned out to be 27.4 ×10⁻⁶ cm/s and the efflux ratio at 90 min amounted to 12.5.

In the case of `CC(C)OC(=O)N[C@H]1CC[C@H](c2ncc(-c3ccc(NC(=O)NCc4ccccc4)cc3S(=O)(=O)NC(C)(C)C)s2)CC1` [Ex. 66A, trans-isopropyl N-[4-[5-[4-(benzylcarbamoylamino)-2-(tert-butylsulfamoyl)phenyl]thiazol-2-yl]cyclohexyl]carbamate], the “F (%) @ 5 mg/kg” value in series [3] (Rat Female) turned out to be 3.31%; in series [3] (Rat Male) it was 2.55%. Also, in series [4], the “% QH (percentage of hepatic blood flow)” value came out at 49.6%.
